Test results taken from patent US8664272B2, “Composition and methods for the treatment of myelodysplastic syndrome and acute myeloid leukemia” (Temple University—Of the Commonwealth System of Higher …, priority 2006, dated 2014).

What was measured:
HL-60 cell line = conditions: cited from earlier work
[1] = system: myelodysplastic syndrome patients; conditions: cited from earlier work
HL-60 cells = test: Cytotoxicity of drug combinations towards HL-60 cells (WST-1 assay, median-effect analysis); assay type: cell-based, human; conditions: single agent, concentrations higher than 500 nM, 72 h
Protocol: Human promyelocytic leukemia cell line HL-60 were obtained from American Type Culture Collection. The cells were maintained in RPMI 1640 medium supplemented with 10% FBS, penicillin, (50 U/mL), streptomycin, (50 μg/mL). Cell cultures were maintained at 37° C. in 5% CO2 humidified atmosphere. Cells were counted in a hemocytometer, using Trypan blue staining as an indicator of viability.
The test compound, or combination of compounds, was added in 50 μL volume into flat-bottom 96-well plates. Control cultures received the same amount of medium without the test compound. HL-60 cells (1×10^6 cells/mL) were suspended in growth medium and dispensed in 50 μL aliquots into the well containing the compound. The plates were incubated at 37° C. (5% CO2) for 72 h. Cytotoxicity was then determined using the WST-1 assay. In the WST-1 assay cell viability is determined by incubating the cells for a further period of 0.5 to 4 h in the presence of the tetrazolium salt 4-(3-(4-iodophenyl)-2-(4-nitrophenyl)-2H-5-tetrazolio]-1,3-benzene disulfonate. In the presence of viable cells, the compound is reduced by mitochondrial dehydrogenases to a fluorescent product. The absorbance was measured against a background control without cell, in a microtiter plate reader (Bio-Tek Instruments, Elx 800) at 450 nm with a reference wavelength of 630 nm. […]

[2] = subcutaneous 75 mg/m^2/day for 7 days every 4 weeks, phase 3

## Nc1ncn([C@@H]2O[C@H](CO)[C@@H](O)[C@H]2O)c(=O)n1 [Azacitidine, 5-azacytidine]
HL-60 cell line
  apoptosis: induces apoptosis
[1]; clinical trials
  significant side-effects: nausea, anemia, thrombocytopenia, vomiting, pyrexia, leukopenia, diarrhea, fatigue, injection site erythema, constipation, neutropenia, and ecchymosis
[1]; [2]
  patients responded completely: 5%
  patients responded partially: 10%
  response rate: 15%

## COc1cc(OC)c(/C=C/S(=O)(=O)Cc2ccc(OC)c(NCC(=O)[O-])c2)c(OC)c1.[Na+] [Compound A, (E)-2-(5-((2,4,6-trimethoxystyrylsulfonyl)methyl)-2-methoxyphenylamino)acetic acid sodium salt]
HL-60 cells
  cell death: virtually complete cell death
